Data from patent US20230381270A1, “PHARMACEUTICAL COMBINATIONS FOR TREATING CANCER” (POLYPHOR AG, priority 2017, published 2023).
Read-outs that look alike come from different tables or passages of the source.

How the values were obtained:
metastatic breast cancer = conditions: cited from earlier work
[1] = Phase I trial of eribulin + POL6326: safety and tolerability (adverse events); type: in vivo, human; conditions: balixafortide-related; most frequent during Day 1, Cycle 1
Description: This open-label, single-arm, non-randomised Phase I, dose escalation trial enrolled HER2-negative (any oestrogen or progesterone receptor status) females age […] years with histologically confirmed invasive breast cancer, stage IV disease (American Joint Committee on Cancer criteria), evidence of tumour cell CXCR4 expression by immunohistochemistry on tumour tissue (archival primary tumour, metastatic tissue, or from a fresh biopsy), and at least one measurable lesion according to Response Evaluation Criteria in Solid Tumours (RECIST) 1.1 criteria. Patients had previously received […] chemotherapy regimens for metastatic breast cancer (MBC). Patients with hormone receptor positive status must have failed at least one endocrine therapy or be considered unsuitable for endocrine therapy. Eligibility criteria also included an Eastern Cooperative Oncology Group performance status of 0 or 1. This phase I study investigates the combination of eribulin with POL6326 in relapsed metastatic breast cancer. The primary objectives are the safety, tolerability, and pharmacokinetics (PK) of this combination therapy, as well as the maximum tolerated dose (MTD) and recommended phase 2 dose (RP2D) of POL6326 when added to eribulin. Efficacy, as measured by tumor response, was additionally assessed.
Treatment cycles of 21 days each. […]

human CXCR4 receptor = human CXCR4 receptor (Homo sapiens, UniProt P61073); assay: In vitro receptor binding studies
Description: (§1) Cyclo(-Tyr-His-Ala-Cys-Ser-Ala-^DPro-Dab-Arg-Tyr-Cys-Tyr-Gln-Lys-^DPro-Pro-) having a disulfide bond between Cys4 and Cys11 is also referred as POL6326 herein or balixafortide. POL6326 is a cyclic synthetic peptide consisting of 16 amino acids and an antagonist of the highly conserved chemokine receptor CXCR4 and is being developed as an IV treatment in combination with chemotherapy in patients with leukemias (autologous transplantation).

[2] = system: other potential target receptors; assay: In vitro receptor binding studies, other receptors
Description: as §1

advanced cancer = conditions: monotherapy (Galsky 2014); cited from earlier work
[3] = Phase II study, eribulin alone (Cortes et al 2010)
[4] = Phase II study, eribulin alone (Vandat et al 2009)
[5] = relapsed mBC patients in 3rd line and beyond, published data

Chain of human CXCR4 receptor (P61073 whole entry): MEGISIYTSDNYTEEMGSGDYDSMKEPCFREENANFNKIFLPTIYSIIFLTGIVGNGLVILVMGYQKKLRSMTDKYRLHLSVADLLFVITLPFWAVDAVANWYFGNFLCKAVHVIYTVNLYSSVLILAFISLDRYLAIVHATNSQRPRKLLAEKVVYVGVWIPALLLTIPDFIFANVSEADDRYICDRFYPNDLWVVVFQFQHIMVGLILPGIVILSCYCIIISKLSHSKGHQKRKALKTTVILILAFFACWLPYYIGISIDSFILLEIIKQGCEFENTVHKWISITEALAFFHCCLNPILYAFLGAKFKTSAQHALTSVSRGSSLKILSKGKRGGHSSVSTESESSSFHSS

Which results are given for `C=C1C[C@@H]2CC[C@@]34C[C@H]5O[C@H]6[C@@H](O3)[C@H]3O[C@H](CC[C@@H]3O[C@H]6[C@H]5O4)CC(=O)C[C@@H]3[C@@H](OC)[C@@H](C[C@H](O)CN)O[C@H]3C[C@H]3O[C@@H](CC[C@@H]1O2)C[C@@H](C)C3=C` [eribulin, 2-(3-amino-2-hydroxypropyl)hexacosahydro-3-methoxy-26-methyl-20,27-bis(methylene)11,15-18,21-24,28-triepoxy-7,9-ethano-12,15-methano-9H,15H-furo (3,2-i)furo(2′,3′-5,6)pyrano (4,3-b)(1,4)dioxacyclopentacosin-5-(4H)-one]?
CBR (metastatic breast cancer; [3]): 17.1%; ORR (metastatic breast cancer; [3]): 9%; CBR (metastatic breast cancer; [4]): 17.2%; ORR (metastatic breast cancer; [4]): 11.5%; mPFS (metastatic breast cancer; eribulin alone, published trials recruiting similar patients): 2.6-4.1 months; One year OS (metastatic breast cancer; eribulin alone, reported): 53.9%; ORR (metastatic breast cancer; randomised Phase III trial (EMBRACE, Cortes 2011)): 12%; ORR (metastatic breast cancer; randomised Phase III trial (Kaufman 2015)): 11%; overall survival (OS) (metastatic breast cancer; [5]): 13.1 months; progression-free survival (PFS) (metastatic breast cancer; [5]): 3.7 months

Which “infusion-related reactions (IRRs)” value [1] does the source give for “Cyclo(-Tyr-His-Ala-Cys-Ser-Ala-^DPro-Dab-Arg-Tyr-Cys-Tyr-Gln-Lys-^DPro-Pro-) having a disulfide bond between Cys4 and Cys11 [POL6326]” here?
The value was “the majority were low grade”.

What about the “affinity for the human CXCR4 receptor” value (human CXCR4 receptor) of the same compound?
The value was “significant affinity”.

And the “binding to other potential target receptors” value [2]?
The value was “general lack of significant binding”.

For LY2510924, which DLT (advanced cancer) is on record?
Its DLT is “abnormal neutrophil count”.
